# Results: patent US5047397A, “Linear analogs of atrial natriuretic peptides” (California Biotechnology Inc., priority 1988, dated 1991)
# *1 amine or outer side, *2 acyl side, *3 side chain or, on linkers, in order; H or OH if unused. Where a SMILES comes first, the peptide text is derived from it. Bridges are numbered along the chain shown (N, C = ends). Where no end group is shown, it is not given here. [ ]: non-standard residue; d: D form. The star is where a group is joined. Propanoyl(3-indol-3-yl) = O=C(CCc1c[nH]c2ccccc12)*; Acetyl(2-naphthyloxy) = O=C(COc1ccc2ccccc2c1)*; Dibenzylacetyl = O=C(C(Cc1ccccc1)Cc1ccccc1)*; X10 = O=C(CNc1ccc(C(=O)*)cc1)c1ccc2ccccc2c1; Acetyl(2-naphthyl) = O=C(Cc1ccc2ccccc2c1)*; Fmoc = O=C(OCC1c2ccccc2-c2ccccc21)*; NH(2S-methylbutyl) = CC[C@H](C)CN*; 2Naphthoyl = O=C(c1ccc2ccccc2c1)*; Hydrocinnamoyl = O=C(CCc1ccccc1)*; NMeI = CC[C@H](C)[C@H](NC)C(=O)O; X1 = O=C(Cc1ccc(N[*:1])cc1)[*:2]; tBuAla = CC(C)(C)C[C@H](N)C(=O)O; Cha = N[C@@H](CC1CCCCC1)C(=O)O; Cit = NC(=O)NCCC[C@H](N)C(=O)O; Phg = N[C@H](C(=O)O)c1ccccc1; Tle = CC(C)(C)[C@H](N)C(=O)O; 4Amb = NCc1ccc(C(=O)O)cc1; 4Abz = Nc1ccc(C(=O)O)cc1; Aib = CC(C)(N)C(=O)O; Aoc = NCCCCCCCC(=O)O; Inp = O=C(O)C1CCNCC1; Ava = NCCCCC(=O)O
# Biological target: T1, specific ANP receptor sites on BASM or BAE cells (Bos taurus, UniProt P10730)
# T1 construct: specific receptor sites on BASM or BAE cells; endogenous in cells; host or cells: cultured BASM and BAE cells
# T1 sequence (P10730 42-537): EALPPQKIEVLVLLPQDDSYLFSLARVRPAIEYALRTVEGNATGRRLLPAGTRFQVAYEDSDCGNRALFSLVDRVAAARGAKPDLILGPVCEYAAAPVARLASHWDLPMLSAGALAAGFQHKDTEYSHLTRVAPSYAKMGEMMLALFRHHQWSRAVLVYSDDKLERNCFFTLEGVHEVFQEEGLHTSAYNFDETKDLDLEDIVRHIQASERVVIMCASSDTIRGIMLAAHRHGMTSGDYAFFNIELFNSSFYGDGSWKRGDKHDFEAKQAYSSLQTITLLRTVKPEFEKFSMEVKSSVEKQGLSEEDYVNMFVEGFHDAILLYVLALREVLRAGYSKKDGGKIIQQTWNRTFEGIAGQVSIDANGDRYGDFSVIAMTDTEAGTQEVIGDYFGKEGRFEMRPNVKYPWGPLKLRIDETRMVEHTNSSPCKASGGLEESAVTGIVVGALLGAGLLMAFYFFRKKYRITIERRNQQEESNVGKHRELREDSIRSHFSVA
# Assay: Competitive displacement receptor binding of (125I)-rANP(126-150) on cultured cells
# Set-up: species or system bovine
# Conditions: not given
# Description: Analogous "competitive displacement" receptor binding assays are considered commonplace in the art for examining specific ligand-receptor interactions.
# Assuming these ANP analogs act at one or more ANP receptor sites, then increased receptor affinity should reflect increased biological potency.
row,Molecule,"receptor binding / activity as judged by Ki, in words"
1,"CC[C@H](C)[C@H](NC(=O)[C@H](CCCNC(=N)N)NC(=O)[C@H](CC(=O)O)NC(=O)[C@@H](NC(=O)[C@H](CCCNC(=N)N)NC(=O)CNC(=O)CNC(=O)Cc1ccc2ccccc2c1)c1ccccc1)C(N)=O [AP575, (2-NA)--G--G--R--Phg--D--R--I--NH2] ({Acetyl(2-naphthyl)}-GGR[Phg]DRI-NH2)","very low, if any, activity"
2,"GGRIDRIGAA-NH2 [AP105, G--G--R--I--D--R--I--G--A--A--NH2]",do not
3,"RIDRIG-NH2 [AP125, R--I--D--R--I--G--NH2]",do not

# Same assay, conditions: Table 2A; unit not given; in nM
row,Molecule,Ki
1,CC[C@H](C)[C@@H]1NC(=O)[C@H](CCCNC(=N)N)NC(=O)[C@H](CC(=O)O)NC(=O)[C@H]([C@@H](C)CC)NC(=O)[C@H](CCCNC(=N)N)NC(=O)CNC(=O)CNC(=O)[C@H](Cc2ccccc2)NC(=O)[C@@H](NC(=O)[C@H](CO)NC(=O)[C@H](CO)NC(=O)[C@@H](N)CCCNC(=N)N)CSSC[C@@H](C(=O)N[C@@H](CC(N)=O)C(=O)N[C@@H](CO)C(=O)N[C@@H](Cc2ccccc2)C(=O)N[C@@H](CCCNC(=N)N)C(=O)N[C@@H](Cc2ccc(O)cc2)C(=O)O)NC(=O)CNC1=O [AP21] (H-RSSCFGGRIDRIGCNSFRY-OH; disulfide 4-14),15.15

# Same assay, conditions: concentration of unlabeled peptide displacing 50% of maximal binding of 0.5 nM (125I)-rANP(126-150); BASM or BAE cells
row,Molecule,Ki(app) [µM]
1,CC[C@H](C)CNC(=O)[C@H](CCCNC(=N)N)NC(=O)[C@H](CC(=O)O)NC(=O)[C@@H](NC(=O)[C@H](CCCNC(=N)N)NC(=O)C1CCN(C(=O)COc2ccc3ccccc3c2)CC1)[C@@H](C)CC [AP810] ({Acetyl(2-naphthyloxy)-Inp}-RIDR-{NH(2S-methylbutyl)}),0.0141
2,CC[C@H](C)[C@H](NC(=O)[C@H](CCCNC(=N)N)NC(=O)[C@H](CC(=O)O)NC(=O)[C@@H](NC(=O)[C@H](CCCNC(=N)N)NC(=O)c1ccc(NCC(=O)c2ccc3ccccc3c2)cc1)[C@@H](C)CC)C(N)=O [AP794] (X10-RIDRI-NH2),0.0131
3,"CC[C@H](C)[C@H](NC(=O)[C@H](CCCNC(=N)N)NC(=O)[C@H](CC(=O)O)NC(=O)[C@@H](NC(=O)[C@H](CCCNC(=N)N)NC(=O)CNC(=O)CNC(=O)Cc1ccc2ccccc2c1)c1ccccc1)C(N)=O [AP575, (2-NA)--G--G--R--Phg--D--R--I--NH2] ({Acetyl(2-naphthyl)}-GGR[Phg]DRI-NH2)",0.194
4,"CC[C@H](C)[C@H](NC(=O)[C@H](CCCNC(=N)N)NC(=O)[C@H](CC(=O)O)NC(=O)[C@H](CC1CCCCC1)NC(=O)[C@H](CCCNC(=N)N)NC(=O)CNC(=O)CNC(=O)Cc1ccc2ccccc2c1)C(N)=O [AP527, (2-NA)--G--G--R--Cha--D--R--I--NH2] ({Acetyl(2-naphthyl)}-GGR[Cha]DRI-NH2)",0.0225
5,"CC[C@H](C)[C@H](NC(=O)[C@H](CCCNC(=N)N)NC(=O)[C@H](CC(=O)O)NC(=O)[C@@H](NC(=O)[C@H](CCCNC(=N)N)NC(=O)CCCCCCCNC(=O)COc1ccc2ccccc2c1)[C@@H](C)CC)C(N)=O [AP789, (2-NOA)--NH--(CH2)7 --CO--R--I--D--R--I--NH2] ({Acetyl(2-naphthyloxy)-Aoc}-RIDRI-NH2)",0.38
6,"GGRIDRIGAA-NH2 [AP105, G--G--R--I--D--R--I--G--A--A--NH2]",> 0.2
7,CCNC(=O)CNC(=O)[C@H]([C@@H](C)CC)N(C)C(=O)[C@H](CCCNC(=N)N)NC(=O)[C@H](CC(=O)O)NC(=O)[C@@H](NC(=O)[C@H](CCCNC(=N)N)NC(=O)CNC(=O)CNC(=O)Cc1ccc2ccccc2c1)[C@@H](C)CC [AP529] ({Acetyl(2-naphthyl)}-GGRIDR[NMeI]G-NHEt),0.0873
8,"CC[C@H](C)[C@H](NC(=O)[C@H](CCCNC(N)=O)NC(=O)[C@H](CC(=O)O)NC(=O)[C@@H](NC(=O)[C@H](CCCNC(=N)N)NC(=O)CNC(=O)CNC(=O)Cc1ccc2ccccc2c1)[C@@H](C)CC)C(N)=O [AP593, (2-NA)--G--G--R--I--D--Cit--I--NH2] ({Acetyl(2-naphthyl)}-GGRID[Cit]I-NH2)",0.055
9,"CC[C@H](C)[C@H](NC(=O)[C@H](CCCNC(=N)N)NC(=O)[C@H](CC(=O)O)NC(=O)[C@H](CC(C)(C)C)NC(=O)[C@H](CCCNC(=N)N)NC(=O)CNC(=O)CNC(=O)Cc1ccc2ccccc2c1)C(N)=O [AP590, (2-NA)--G--G--R--tBuA--D--R--I--NH2] ({Acetyl(2-naphthyl)}-GGR[tBuAla]DRI-NH2)",0.012
10,"CC[C@H](C)[C@H](NC(=O)[C@H](CCCNC(=N)N)NC(=O)[C@H](CC(=O)O)NC(=O)[C@@H](NC(=O)[C@H](CCCNC(=N)N)NC(=O)CNC(=O)CNC(=O)Cc1ccc2ccccc2c1)C(C)(C)C)C(N)=O [AP591, (2-NA)--G--G--R--tBuG--D--R--I--NH2] ({Acetyl(2-naphthyl)}-GGR[Tle]DRI-NH2)",0.014
11,CC[C@H](C)[C@H](NC(=O)[C@H](CCCNC(=N)N)NC(=O)[C@H](CC(=O)O)NC(=O)[C@@H](NC(=O)[C@H](CCCNC(=N)N)NC(=O)c1ccc(NC(=O)COc2ccc3ccccc3c2)cc1)[C@@H](C)CC)C(N)=O [AP791] ({Acetyl(2-naphthyloxy)-4Abz}-RIDRI-NH2),0.0311
12,CC[C@H](C)[C@H](NC(=O)[C@H](CCCNC(=N)N)NC(=O)[C@H](CC(=O)O)NC(=O)[C@@H](NC(=O)[C@H](CCCCN)NC(=O)Cc1ccc(NC(=O)COc2ccc3ccccc3c2)cc1)[C@@H](C)CC)C(N)=O [AP798] ({Acetyl(2-naphthyloxy)}-[X1]KIDRI-NH2),0.00395
13,CC[C@H](C)CNC(=O)[C@H](CCCNC(=N)N)NC(=O)[C@H](CC(=O)O)NC(=O)[C@@H](NC(=O)[C@H](CCCNC(=N)N)NC(=O)Cc1ccc(NC(=O)c2ccc3ccccc3c2)cc1)[C@@H](C)CC [AP811] (2Naphthoyl-[X1]RIDR-{NH(2S-methylbutyl)}),0.00252
14,"CC[C@H](C)[C@H](NC(=O)[C@H](CCCNC(=N)N)NC(=O)[C@H](CC(=O)O)NC(=O)[C@@H](NC(=O)[C@H](CCCNC(=N)N)NC(=O)CNC(=O)CNC(=O)CCc1ccccc1)[C@@H](C)CC)C(=O)NCC(=O)N[C@@H](C)C(N)=O [AP130, (desNH2 --F)--G--G--R--I--D--R--I--G--A--NH2] (Hydrocinnamoyl-GGRIDRIGA-NH2)",0.0088
15,"CC[C@H](C)[C@H](NC(=O)[C@H](CCCNC(=N)N)NC(=O)[C@H](CC(=O)O)NC(=O)[C@@H](NC(=O)[C@H](CCCNC(=N)N)NC(=O)CNC(=O)CNC(=O)CCc1c[nH]c2ccccc12)[C@@H](C)CC)C(=O)NCC(=O)N[C@@H](C)C(N)=O [AP313, (IP)--G--G--R--I--D--R--I--G--A--NH2] ({Propanoyl(3-indol-3-yl)}-GGRIDRIGA-NH2)",0.00452
16,CC[C@H](C)[C@H](NC(=O)[C@H](CCCNC(=N)N)NC(=O)[C@H](CC(=O)O)NC(=O)[C@@H](NC(=O)[C@H](CCCNC(=N)N)NC(=O)c1ccc(CNC(=O)c2ccc3ccccc3c2)cc1)[C@@H](C)CC)C(N)=O [AP795] ({2Naphthoyl-4Amb}-RIDRI-NH2),0.0119
17,"CC[C@H](C)[C@H](NC(=O)[C@H](CCCNC(=N)N)NC(=O)[C@H](CC(=O)O)NC(=O)[C@@H](NC(=O)[C@H](CCCNC(=N)N)NC(=O)CNC(=O)CNC(=O)Cc1ccc2ccccc2c1)[C@@H](C)CC)C(=O)NCC(=O)N[C@@H](C)C(N)=O [AP306, (2--Naphthylacetyl)-G-G-R-I-D-R-I-G-A-NH2] ({Acetyl(2-naphthyl)}-GGRIDRIGA-NH2)",0.00203
18,"CC[C@H](C)[C@H](NC(=O)[C@H](CCCNC(=N)N)NC(=O)[C@H](CC(=O)O)NC(=O)[C@@H](NC(=O)[C@H](CCCNC(=N)N)NC(=O)CNC(=O)CNC(=O)OCC1c2ccccc2-c2ccccc21)[C@@H](C)CC)C(=O)NCC(=O)N[C@@H](C)C(N)=O [AP312, (FMOC)--G--G--R--I--D--R--I--G--A--NH2] (Fmoc-GGRIDRIGA-NH2)",0.00627
19,"CC[C@H](C)[C@H](NC(=O)[C@H](CCCNC(=N)N)NC(=O)[C@H](CC(=O)O)NC(=O)[C@@H](NC(=O)[C@H](CCCNC(=N)N)NC(=O)CCCCNC(=O)COc1ccc2ccccc2c1)[C@@H](C)CC)C(N)=O [AP307, (2-Naphthoxyacetyl)-NH(CH2)4 CO-R-I-D-R-I-NH2] ({Acetyl(2-naphthyloxy)-Ava}-RIDRI-NH2)",0.0399
20,"CC[C@H](C)[C@H](NC(=O)[C@H](CCCNC(=N)N)NC(=O)[C@H](CC(=O)O)NC(=O)[C@@H](NC(=O)[C@H](CCCNC(=N)N)NC(=O)C(C)(C)NC(=O)CNC(=O)Cc1ccc2ccccc2c1)[C@@H](C)CC)C(N)=O [AP321, (2-NA)--G--(Aib)--R--I--D--R--I--NH2] ({Acetyl(2-naphthyl)}-G[Aib]RIDRI-NH2)",0.033
21,"RIDRIG-NH2 [AP125, R--I--D--R--I--G--NH2]",> 0.2
22,"CC[C@H](C)[C@H](NC(=O)[C@H](CCCNC(=N)N)NC(=O)[C@H](CC(=O)O)NC(=O)[C@@H](NC(=O)[C@H](CCCNC(=N)N)NC(=O)CNC(=O)CNC(=O)C(Cc1ccccc1)Cc1ccccc1)[C@@H](C)CC)C(=O)NCC(=O)N[C@@H](C)C(N)=O [AP534, (DBA)--G--G--R-- I--D--R--I--G--A--NH2)] (Dibenzylacetyl-GGRIDRIGA-NH2)",0.00881
23,CC[C@H](C)CNC(=O)[C@H](CCCNC(=N)N)NC(=O)[C@H](CC(=O)O)NC(=O)[C@@H](NC(=O)[C@H](CCCNC(=N)N)NC(=O)Cc1ccc(NC(=O)COc2ccc3ccccc3c2)cc1)[C@@H](C)CC [AP813] ({Acetyl(2-naphthyloxy)}-[X1]RIDR-{NH(2S-methylbutyl)}),0.056
